ChEMBL document CHEMBL3046534, “QSAR modeling of the inhibition of reverse transcriptase enzyme with benzimidazolone analogs” (Med Chem Res, 2011)

Tested on: Human immunodeficiency virus 1
Test: Antiviral activity against Human immunodeficiency virus 1 infected human MT4 cells assessed as protection against virus-induced cytopathic effect
Type: functional, organism-based
Conditions: Human immunodeficiency virus 1, MT4

Row | EC50 (read-out: EC50) [nM] | EC50 (read-out: pEC50 (converted)) [nM] | Structure (SMILES)
1 | 870 | 870 | Oc1nc2ccc(Cl)cc2n1Cc1cccc2ccccc12
2 | 3720 | 3720 | O=c1oc2ccc(Cl)cc2n1Cc1c(F)cccc1F
3 | 2830 | 2830 | CC(C)c1ccc(Cn2c(O)nc3ccc(Cl)cc32)cc1
4 | 29600 | 29600 | Oc1nc2cc(Cl)ccc2n1Cc1c(F)cccc1F
5 |  | 534 | O=c1[nH]c2ccc(Cl)cc2n1Cc1c(F)cccc1F
